In PubChem BioAssay (NCI):
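Where inhibition never reached the appropriate level, the endpoint shown equals the highest concentration tested. Otherwise, values were interpolated linearly from a five-concentration, 48-hour dose response in 96-well plates. GI50 is the concentration that inhibits growth by half. TGI: concentration producing complete growth inhibition.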

How the values were obtained:
Assay in all cases: NCI tumour cell line growth inhibition, 48 h
[1] = tested on: DU-145 prostate
[2] = tested on: MALME-3M melanoma
[3] = tested on: RXF 393 renal
[4] = tested on: SNB-19 CNS
[5] = tested on: MOLT-4 leukemia
[6] = tested on: MCF7 breast
[7] = tested on: NCI/ADR-RES ovarian
[8] = tested on: PC-3 prostate
[9] = tested on: LOX IMVI melanoma
[10] = tested on: NCI-H226 lung
[11] = tested on: SF-268 CNS
[12] = tested on: SK-MEL-28 melanoma
[13] = tested on: SK-OV-3 ovarian
[14] = tested on: SK-MEL-5 melanoma
[15] = tested on: OVCAR-3 ovarian
[16] = tested on: A498 renal
[17] = tested on: OVCAR-8 ovarian
[18] = tested on: SF-295 CNS
[19] = tested on: NCI-H460 lung
[20] = tested on: OVCAR-5 ovarian
[21] = tested on: SF-539 CNS
[22] = tested on: EKVX NSCLC
[23] = tested on: CCRF-CEM leukemia
[24] = tested on: UACC-257 melanoma
[25] = tested on: SNB-75 CNS
[26] = tested on: MDA-MB-435
[27] = tested on: HCT-15 colon
[28] = tested on: HCC-2998 colon
[29] = tested on: TK-10 renal
[30] = tested on: 786-0 renal
[31] = tested on: HL-60(TB) leukemia
[32] = tested on: HOP-62 NSCLC
[33] = tested on: T-47D breast
[34] = tested on: SK-MEL-2 melanoma
[35] = tested on: KM12 colon
[36] = tested on: HOP-92 NSCLC
[37] = tested on: U251 CNS
[38] = tested on: COLO 205 colon
[39] = tested on: IGROV1 ovarian
[40] = tested on: SR leukemia
[41] = tested on: UACC-62 melanoma
[42] = tested on: HS 578T breast
[43] = tested on: SW-620 colon
[44] = tested on: M14 melanoma
[45] = tested on: NCI-H522 lung
[46] = tested on: NCI-H23 lung
[47] = tested on: MDA-MB-231 breast
[48] = tested on: BT-549 breast
[49] = tested on: K-562 leukemia
[50] = tested on: A549 NSCLC
[51] = tested on: UO-31 renal
[52] = tested on: HT29 colon
[53] = tested on: CAKI-1 renal
[54] = tested on: ACHN renal
[55] = tested on: HCT-116 colon
[56] = tested on: OVCAR-4 ovarian
[57] = tested on: RPMI-8226 leukemia
[58] = tested on: SN12C renal

CN1CCN(Cc2ccc(NC(=O)c3cncc(C#Cc4cnc5ccc(OCC6COC6)nn45)c3)cc2C(F)(F)F)CC1
GI50 [1]: 177 nM | TGI [1]: 573 nM | GI50 [2]: 89.5 nM | TGI [2]: 314 nM | GI50 [3]: 159 nM | TGI [3]: 457 nM | GI50 [4]: 363 nM | TGI [4]: 2050 nM | GI50 [5]: 129 nM | TGI [5]: 941 nM | GI50 [6]: 96 nM | TGI [6]: 528 nM | GI50 [7]: 195 nM | TGI [7]: 1260 nM | GI50 [8]: 244 nM | TGI [8]: 1450 nM | GI50 [9]: 165 nM | TGI [9]: 620 nM | GI50 [10]: 50.4 nM | TGI [10]: 709 nM | GI50 [11]: 189 nM | TGI [11]: 629 nM | GI50 [12]: 218 nM | TGI [12]: 809 nM | GI50 [13]: 244 nM | TGI [13]: 927 nM | GI50 [14]: 552 nM | TGI [14]: 1170 nM | GI50 [15]: 214 nM | TGI [15]: 705 nM | GI50 [16]: 483 nM | TGI [16]: 1110 nM | GI50 [17]: 163 nM | TGI [17]: 600 nM | GI50 [18]: 443 nM | TGI [18]: 1120 nM | GI50 [19]: 189 nM | TGI [19]: 676 nM | GI50 [20]: 222 nM | TGI [20]: 812 nM | GI50 [21]: 165 nM | TGI [21]: 795 nM | GI50 [22]: 273 nM | TGI [22]: 954 nM | GI50 [23]: 184 nM | TGI [23]: 3880 nM | GI50 [24]: 384 nM | TGI [24]: 1070 nM | GI50 [25]: 182 nM | TGI [25]: 541 nM | GI50 [26]: 144 nM | TGI [26]: 615 nM | GI50 [27]: 153 nM | TGI [27]: 568 nM | GI50 [28]: 310 nM | TGI [28]: 1110 nM | GI50 [29]: 187 nM | TGI [29]: 570 nM | GI50 [30]: 272 nM | TGI [30]: 847 nM | GI50 [31]: 121 nM | TGI [31]: 412 nM | GI50 [32]: 175 nM | TGI [32]: 589 nM | GI50 [33]: 355 nM | TGI [33]: 1430 nM | GI50 [34]: 103 nM | TGI [34]: 237 nM | GI50 [35]: 5 nM | TGI [35]: 451 nM | GI50 [36]: 28 nM | TGI [36]: 166 nM | GI50 [37]: 251 nM | TGI [37]: 935 nM | GI50 [38]: 103 nM | TGI [38]: 222 nM | GI50 [39]: 142 nM | TGI [39]: 583 nM | GI50 [40]: 147 nM | TGI [40]: 517 nM | GI50 [41]: 155 nM | TGI [41]: 717 nM | GI50 [42]: 235 nM | TGI [42]: 1320 nM | GI50 [43]: 160 nM | TGI [43]: 599 nM | GI50 [44]: 88.9 nM | TGI [44]: 205 nM | GI50 [45]: 97.7 nM | TGI [45]: 226 nM | GI50 [46]: 151 nM | TGI [46]: 693 nM | GI50 [47]: 95 nM | TGI [47]: 445 nM | GI50 [48]: 538 nM | TGI [48]: 1180 nM | GI50 [49]: 5 nM | TGI [49]: 5120 nM | GI50 [50]: 174 nM | TGI [50]: 655 nM | GI50 [51]: 167 nM | TGI [51]: 558 nM | GI50 [52]: 166 nM | TGI [52]: 687 nM | GI50 [53]: 117 nM | TGI [53]: 432 nM | GI50 [54]: 167 nM | TGI [54]: 605 nM | GI50 [55]: 91.1 nM | TGI [55]: 306 nM | GI50 [56]: 193 nM | TGI [56]: 979 nM | GI50 [57]: 269 nM | TGI [57]: 1260 nM | GI50 [58]: 141 nM | TGI [58]: 609 nM
